We go through five compounds from ChEMBL document CHEMBL4339187, “Discovery of a new class of MTH1 inhibitor by X-ray crystallographic screening” (Eur J Med Chem, 2019).

One test relates to Escherichia coli. The experiment in a line: Inhibition of Escherichia coli inorganic pyrophosphatase assessed as reduction in orthophosphate formation at 0.3 to 10 uM measured after 40 using pyrophosphate as substrate by malachite green dye based absorbance assay.
Test [1] has as its target Oxidized purine nucleoside triphosphate hydrolase (Homo sapiens) (UniProt P36639). The experiment in a line: Binding affinity to recombinant C-terminal 6xHis-tagged MTH1 (3 to 156 residues) (unknown origin) expressed in Escherichia coli BL21(DE3) cells assessed as decrease in fluorescence intensity at 1 to 10 uM after 3 mins by tryptophan fluorescence spectroscopy.
Test [2] has the same target. The experiment in a line: Binding affinity to recombinant C-terminal 6xHis-tagged MTH1 (3 to 156 residues) (unknown origin) expressed in Escherichia coli BL21(DE3) cells assessed as decrease in fluorescence intensity at 1 to 200 uM after 3 mins by tryptophan fluorescence spectroscopy.

Molecules are shown by their SMILES. Activity calls are given as the source filed them. The rule behind the calls is not given here.

In the case of `COc1c(O)cc2oc3cc(O)c(CC=C(C)C)c(O)c3c(=O)c2c1CC=C(C)C`, in the test on Escherichia coli, the inhibition result was “inactive”.

As for `CC(C)=CCc1c(O)cc2oc3cc(O)c(O)c(CC=C(C)C)c3c(=O)c2c1O`, in test [1], the result was Active.

As for `CNc1cc(-c2cccc(Cl)c2Cl)nc(N)n1`, the result in test [1] was Active.

With `COc1c(O)cc2oc3cc4c(c(O)c3c(=O)c2c1CC=C(C)C)CCC(C)(C)O4`, the outcome in test [1] was Active. Further, the inhibition entry in the test with Escherichia coli was “inactive”.

Turning to `Nc1nc2c(ncn2[C@H]2C[C@H](O)[C@@H](COP(=O)(O)OP(=O)(O)OP(=O)(O)O)O2)c(=O)[nH]1`, the outcome in test [2] and in test [1] was Active.
